Each structure is given as a SMILES string. Where only a bound is given, the exact number is not on record here.

These results are taken from patent publication US10787436B2, “Inhibitors of cyclin-dependent kinase 7 (CDK7)” (Dana-Farber Cancer Institute, Inc., priority 2012, dated 2020).

The target of test [1] is JNK2 (MAPK9) (Homo sapiens (Human), UniProt P45984). Description: Life Technologies Z'-Lyte kinase assay, JNK2. It is filed as biochemical.
Test [2] has as its system multiple myeloma cell lines. Description: Anti-proliferative effect in multiple myeloma cell lines with or without stromal cells, cell titer glo, 48-hour. The test is classed as cell-based. The following applies: 48-hour treatment. How it is done: Clinical isolates of CLL were cultured with compounds of Formula (I) or flavopiridol and assessed for cell death after a 24 hour time course by Annexin V staining. […] Anti-proliferative effect was measured using cell titer glo analysis.
Proliferation assays were conducted over a 48-72 hour time period (as noted). […] Cancer cell line profiling was performed over a 72 time period using Alamar Blue reagent.
A general note: ATP-based viability assays read luminescence as a measure of living cells.

In test [3] the test system is RS4-11. Description: Proliferation assay, CellTiter-Glo, 72 hour. The following applies: blood cancer cell line, read-out: Inhibition of proliferation, RS4-11. The test is classed as cell-based.
Test [4] has as its target CDK7 (recombinant CAK complex) (Homo sapiens (Human), UniProt P50613). Description: In vitro kinase assay with recombinant CAK complex, with and without pre-incubation. It is filed as biochemical. As to conditions: 25 μM ATP, 45 minutes at 30° C. How it is done:
Cellular lysates were then probed with antibodies recognizing the Ser-2, Ser-5, and Ser-7 CTD phosphoepitopes. […] At each time point cells were lysed, and the cellular lysates were probed using antibodies as described herein. […] Cells were allowed to grow in medium without inhibitor for 0 to 6 hours. At each time point cells were lysed, and the cellular lysates were probed using antibodies as described herein. […] The kinase reaction was then allowed to proceed for 45 minutes at 30° C.
In vitro kinase assays with immunoprecipitated proteins (or recombinant CAK complexes) were performed as follows. Kinase reactions were performed in 25 μL of final volume of reaction buffer (50 mM Hepes, pH 7.5, 150 mM NaCl, 10 mM MgCl2, 5% glycerol, 25 μM ATP, and 10 μCi of [γ-32P]ATP). Each reaction contained 1 μg of RNAP II. Incubation was at 30° C. for 30-45 min. Reactions were terminated by addition of 5 μL of 5×SDS-PAGE sample buffer and incubated at 95° C. for 5 min. Reactions were analyzed by SDS-PAGE, and the dried gel was exposed to film or PhosphorImager plate.
Covalent kinase inhibitors have several characteristics that functionally differentiate themselves from their reversible counterparts. […] Washout of compound I-23R, following a 4-hour administration led to the recovery of RNAP II CTD phosphorylation within 1 hour (FIG. 2C). […]

In test [5] the test system is Hs822T. Description: Proliferation assay, CellTiter-Glo, 72 hour. The test is classed as cell-based. The following applies: Ewing's sarcoma cell line, read-out: Inhibition of proliferation, Hs822T.
Test [6] concerns the target IRAK1 (Homo sapiens (Human), UniProt P51617). Description: Life Technologies Adapta kinase assay, IRAK1. The test is classed as biochemical. As to conditions: read-out: Calculated IC50, IRAK1.
Test [7] concerns HL60. In words: Proliferation assay, CellTiter-Glo, 72 hour. The test is classed as cell-based. The following applies: blood cancer cell line, read-out: Inhibition of proliferation, HL60.
Test [8] deals with SAOS. Description: Proliferation assay, CellTiter-Glo, 72 hour. It is filed as cell-based. The following applies: osteosarcoma cell line, read-out: Inhibition of proliferation, SAOS.

Chain of JNK2 (MAPK9) (P45984 whole entry): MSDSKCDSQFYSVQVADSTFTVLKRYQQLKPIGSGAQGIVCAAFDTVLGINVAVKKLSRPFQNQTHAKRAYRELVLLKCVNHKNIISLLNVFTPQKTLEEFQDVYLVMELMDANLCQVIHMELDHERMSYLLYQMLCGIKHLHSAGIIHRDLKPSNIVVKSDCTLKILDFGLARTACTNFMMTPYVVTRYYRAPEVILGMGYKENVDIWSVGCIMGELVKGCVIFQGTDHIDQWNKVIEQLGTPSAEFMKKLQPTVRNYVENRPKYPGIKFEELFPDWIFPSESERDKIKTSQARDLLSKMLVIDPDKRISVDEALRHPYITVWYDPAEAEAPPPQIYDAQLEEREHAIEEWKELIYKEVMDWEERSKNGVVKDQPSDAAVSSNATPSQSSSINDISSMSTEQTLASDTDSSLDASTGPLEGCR
Chain of IRAK1 (P51617 whole entry): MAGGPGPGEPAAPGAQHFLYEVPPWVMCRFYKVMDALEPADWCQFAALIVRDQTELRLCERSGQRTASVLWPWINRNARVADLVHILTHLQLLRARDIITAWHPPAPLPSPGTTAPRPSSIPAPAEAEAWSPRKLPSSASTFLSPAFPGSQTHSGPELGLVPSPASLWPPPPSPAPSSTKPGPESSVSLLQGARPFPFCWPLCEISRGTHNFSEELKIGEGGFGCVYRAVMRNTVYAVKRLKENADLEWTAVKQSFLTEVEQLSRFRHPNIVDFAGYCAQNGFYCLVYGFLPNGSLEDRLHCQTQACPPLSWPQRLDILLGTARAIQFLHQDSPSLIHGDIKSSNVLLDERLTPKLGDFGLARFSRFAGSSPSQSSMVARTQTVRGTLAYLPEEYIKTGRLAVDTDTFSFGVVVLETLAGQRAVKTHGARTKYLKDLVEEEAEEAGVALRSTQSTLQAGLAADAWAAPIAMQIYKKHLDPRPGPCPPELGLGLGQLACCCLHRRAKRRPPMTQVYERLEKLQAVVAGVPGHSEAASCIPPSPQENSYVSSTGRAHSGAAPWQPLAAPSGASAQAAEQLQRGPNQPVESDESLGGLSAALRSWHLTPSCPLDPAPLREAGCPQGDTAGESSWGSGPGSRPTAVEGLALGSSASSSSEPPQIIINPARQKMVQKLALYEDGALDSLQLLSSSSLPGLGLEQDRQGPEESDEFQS
Chain of CDK7 (recombinant CAK complex) (P50613 whole entry): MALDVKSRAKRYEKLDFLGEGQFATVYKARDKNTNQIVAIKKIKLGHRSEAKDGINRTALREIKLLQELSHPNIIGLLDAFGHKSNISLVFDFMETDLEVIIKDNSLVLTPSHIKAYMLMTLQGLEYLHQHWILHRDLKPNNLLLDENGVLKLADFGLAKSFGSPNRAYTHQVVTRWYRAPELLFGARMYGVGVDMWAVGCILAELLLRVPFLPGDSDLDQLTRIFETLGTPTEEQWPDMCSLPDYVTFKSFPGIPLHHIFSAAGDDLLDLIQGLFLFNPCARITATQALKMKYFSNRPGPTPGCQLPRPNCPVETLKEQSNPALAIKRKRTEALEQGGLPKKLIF
Chain of CDK7 (recombinant CAK complex) (P51946 whole entry partner): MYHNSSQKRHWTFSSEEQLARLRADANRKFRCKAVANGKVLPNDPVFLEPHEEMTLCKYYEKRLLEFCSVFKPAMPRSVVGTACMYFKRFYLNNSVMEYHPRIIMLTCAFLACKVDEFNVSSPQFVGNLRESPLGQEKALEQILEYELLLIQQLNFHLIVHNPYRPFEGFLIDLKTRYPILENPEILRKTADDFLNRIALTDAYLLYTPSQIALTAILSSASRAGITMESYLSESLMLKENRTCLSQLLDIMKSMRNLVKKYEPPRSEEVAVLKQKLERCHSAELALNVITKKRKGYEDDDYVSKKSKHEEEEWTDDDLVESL
Chain of CDK7 (recombinant CAK complex) (P51948 whole entry partner): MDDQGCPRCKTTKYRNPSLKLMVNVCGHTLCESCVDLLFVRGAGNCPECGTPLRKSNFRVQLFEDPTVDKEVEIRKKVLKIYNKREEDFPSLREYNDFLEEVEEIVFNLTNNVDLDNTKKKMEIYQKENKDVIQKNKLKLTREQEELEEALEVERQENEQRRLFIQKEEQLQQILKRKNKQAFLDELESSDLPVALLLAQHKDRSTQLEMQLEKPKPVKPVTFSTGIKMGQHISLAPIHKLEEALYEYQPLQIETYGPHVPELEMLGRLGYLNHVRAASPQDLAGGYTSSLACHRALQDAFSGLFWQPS

Turning to `CN(C)C/C=C/C(=O)Nc1ccc(C(=O)Nc2cccc(Nc3ncc(Cl)c(-c4c[nH]c5ccccc45)n3)c2)cc1` [Formula I-23], the IC50 was 100 to 1000 nM in test [1] (read-out: Calculated IC50, JNK2 (MAPK9)); less than 500 nM in test [3]; less than 500 nM in test [5]; less than 100 nM in test [6]; less than 500 nM in test [7]; less than 500 nM in test [8]. Besides, in test [1] (superscript b (footnote not given; tested at 100 nM and 1 μM)), the “Percent inhibition, JNK2 ^b” value is “C (less than 50% inhibition)”. Besides, the “Anti-proliferative activity in MM cell lines” value in test [2] was “highly effective anti-proliferative activity”. Further, the “Effect of pre-incubation with recombinant CAK complex prior to addition of ATP” value in test [4] was “dramatic increase in CDK7 inhibitory activity”.
